Results from paper PMC5999578 (Journal of the American Chemical Society, 2018).

Biological target: VioC (Streptomyces vinaceus, UniProt Q6WZB0)
Experiment: X-ray crystal structure, […] A
Type: binding
Settings: vanadyl (ferryl mimic) in place of Fe, L-hArg

VioC, sequence (Q6WZB0 whole entry): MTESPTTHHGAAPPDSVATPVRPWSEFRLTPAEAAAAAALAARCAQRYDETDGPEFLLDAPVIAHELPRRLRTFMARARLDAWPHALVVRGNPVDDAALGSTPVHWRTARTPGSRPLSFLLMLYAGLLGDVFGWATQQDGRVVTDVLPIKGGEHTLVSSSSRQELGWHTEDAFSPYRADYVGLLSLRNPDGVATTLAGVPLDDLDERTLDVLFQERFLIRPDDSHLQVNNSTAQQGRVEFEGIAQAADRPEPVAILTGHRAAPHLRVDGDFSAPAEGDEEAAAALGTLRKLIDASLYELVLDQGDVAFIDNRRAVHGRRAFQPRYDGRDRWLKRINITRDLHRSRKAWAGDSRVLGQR

O=C(O)CCC(=O)O [succinate]
X-ray crystal structure, 1.70 A: crystals of the VioC•VO•succinate•L-hArg complex
